Data taken from patent US8088819B2, “Derivatives of substituted 3-phenyl-1-(phenylthienyl)propan-1-ones and of 3-phenyl-1-(phenylfuranyl) propan-1-ones, preparation and use” (priority 2006, dated 2012).

What was measured:
[1] = test system: ABCA1 gene in human macrophages (THP-1); test: Reverse cholesterol transport: expression of the ABCA1 gene in human macrophages; format: cell-based; settings: 24 h
Procedure: The effect of the compounds according to the invention on reverse cholesterol transport was evaluated by measuring the expression of the ABCA1 gene (ATP-binding cassette, sub-family A, member 1; membrane transporter involved in the efflux of cholesterol) in human macrophages. The more the expression of ABCA1 is increased, the greater the stimulating action of the compound according to the invention on reverse cholesterol transport.
The THP1 human monocyte line (obtained from ATCC) is cultivated in RPMI1640 medium with addition of 25 mM Hepes (Gibco; 42401-018), 1% glutamine (Gibco; 25030-24), 1% penicillin/streptomycin (Biochrom AG; A 2213) and 10% decomplemented fetal calf serum (FCS. Gibco; 26050-088).
The cells are seeded on 24-well plates (Primaria BD Falcon) at a density of 3·10^5 cells/well and incubated at 37° C. and 5% CO2 for 72 h in the presence of 30 ng/ml of phorbol 12-myristate 13-acetate (PMA) in order to differentiate them to macrophages. […]
(§1) 1 μg of total RNA (quantified based on the spectrophotometer reading) was then reverse-transcribed to complementary DNA by reaction for 1 hour at 37° C. in a total volume of 30 μl containing buffer 1× (Invitrogen), 1.5 mM of DTT, 0.18 mM of dNTPs (Promega), 200 ng of pdN6 (Amersham), 30 U of RNase inhibitor (Promega) and 1 μl of MMLV-RT (Invitrogen).
The quantitative PCR experiments were carried out using the MyiQ Single-Color Real-Time PCR Detection System (Biorad, Marnes-la-Coquette, France) and were performed using the iQ SYBR Green Supermix kit following the supplier's recommendations, in 96-well plates, on 5 μl of diluted reverse transcription reaction mixtures with a hybridization temperature of 60° C. […]
The amount of fluorescence emitted is directly proportional to the amount of complementary DNA present at the start of the reaction and amplified during PCR. […] The relative expression levels of each target are thus determined using the efficacy curves obtained with the points in the range. […]

[2] = test system: target genes of PPARδ in murine myocytes (C2C12); test: Expression of target genes of PPARδ (PDK4, CPT1b, UCP2, UCP3) in murine myocytes, quantitative RT-PCR; format: cell-based; settings: murine myocytes in vitro
Text: It is established that regulation of the expression of these genes is directly controlled by PPARδ in this cell type. The more the expression of the genes is increased, the greater the stimulating action of the compound according to the invention on metabolism in the muscle cells.
Cells from the murine cell line C2C12 (obtained from ECACC) are cultivated in DMEM medium (Gibco; 41965-039) with addition of 1% L-glutamine (Gibco; 25030), 1% of penicillin/streptomycin (VWR; BWSTL0022/100) and 10% decomplemented fetal calf serum (FCS. Gibco; 10270-106).
The cells are seeded on 24-well plates at a density of 50·10^3 cells/well. At confluence, the medium is replaced with a differentiating medium (basal medium with addition of 2% of horse serum (Gibco; 26050-088)), then incubated at 37° C. and 5% CO2 for 4 days in order to differentiate them to myocytes.
After 5 days of differentiation, the cells are put in a deprivation medium (basal medium without serum) for 6 hours. The cells are then treated with the compounds according to the invention in the deprivation medium. Compounds 2, 4, 7, 11, 39, 40, 46, 49 and 72 were in dose effect, corresponding to 1×, 10× and 100× their EC50 PPARδ. The compounds according to the invention were dissolved in dimethylsulfoxide (DMSO, Sigma; D5879). The cells were treated for 24 h at 37° C., 5% CO2. The effect of the compounds according to the invention was compared with the effect of DMSO alone.
After treatment, the total RNA is extracted from the cells using the NucleoSpine® 96 RNA kit (Macherey Nagel, Hoerdt, France) following the manufacturer's instructions.
as §1, with “on the UV spectrophotometer reading)” for “on the spectrophotometer reading)”
The quantitative PCR experiments were carried out using the MyiQ Single-Color Real-Time PCR Detection System (Biorad, Marnes-la-Coquette, France) and were performed using the iQ SYBR Green Supermix kit following the supplier's recommendations, in 96-well plates, on 5 μl of diluted reverse-transcription reaction mixtures with a hybridization temperature of 60° C. Primer pairs specific to the PDK4, CPT1b, UCP2 and UCP3 genes under investigation were used:
The amount of fluorescence emitted is directly proportional to the amount of complementary DNA present at the start of the reaction and amplified during PCR. For each target investigated, a range is produced by successive dilutions of a pool constituted of a few microliters of various reverse-transcription reaction mixtures. The relative expression levels of each target are thus determined using the efficacy curves obtained with the points in the range.
The levels of expression of the genes of interest were then normalized relative to the level of expression of the reference gene 36B4 (whose specific primers are: sense primer: 5′-[…]-3′ (SEQ ID No. 19) and antisense primer: 5′-[…]-3′ (SEQ ID No. 20)). The induction factor, i.e. the ratio of the relative signal (induced by the compound according to the invention) to the mean of the relative values of the control group, was then calculated. The higher this factor, the greater the activating character of the compounds according to the invention with respect to gene expression. The final result is represented as the mean of the induction values in each experimental group.

Row | Structure (SMILES) | expression of the gene coding for ABCA1 in human macrophages ([1]; at 1 μm) | expression of genes involved in carbohydrate and lipid metabolism and in thermoregulation [2] | expression of the gene coding for ABCA1 in human macrophages ([1]; at 300 nM)
1 | CC(C)(Oc1ccc(CCC(=O)c2ccc(-c3ccc(C(F)(F)F)cc3)s2)c(Cl)c1Cl)C(=O)O [Compound 2, 2-(2,3-dichloro-4-(3-oxo-3-(5-(4-(trifluoromethyl)phenyl)thien-2-yl)propyl)phenoxy)-2-methylpropanoic acid] | significant increase | stimulating effects | –
2 | CC(C)(Oc1ccc(CCC(O)c2ccc(-c3ccc(C(F)(F)F)cc3)s2)c(Cl)c1Cl)C(=O)O (stereo not shown) [Compound 4, 2-(2,3-dichloro-4-(3-hydroxy-3-(5-(4-(trifluoromethyl)phenyl)thien-2-yl)propyl)phenoxy)-2-methylpropanoic acid] | significant increase | stimulating effects | –
3 | CC(C)(Oc1ccc(CCC(OCc2ccccc2)c2ccc(-c3ccc(C(F)(F)F)cc3)s2)c(Cl)c1Cl)C(=O)O (stereo not shown) [Compound 7, 2-(4-(3-(benzyloxy)-3-(5-(4-(trifluoromethyl)phenyl)thien-2-yl)propyl)-2,3-dichlorophenoxy)-2-methylpropanoic acid] | – | stimulating effects | significant increase
4 | CC(C)(Oc1ccc(CCC(=O)c2cc(-c3ccc(C(F)(F)F)cc3)cs2)c(Cl)c1Cl)C(=O)O [Compound 11, 2-(2,3-dichloro-4-(3-oxo-3-(4-(4-(trifluoromethyl)phenyl)thien-2-yl)propyl)phenoxy)-2-methylpropanoic acid] | – | stimulating effects | –
